Key:
[1] = system: NCI-H358 cells containing homozygous KRAS-G12C activating mutation (p-ERK); details: Homo sapiens, NCI-H358, 2 h, read-out: G12C H358 IC50 (nM)
Protocol: Procedure for Cellular Phospho-ERK Assay, G12C
NCI-H358 cells (ATCC® CRL-5807™), containing homozygous KRAS-G12C activating mutation, were cultured in T150 flask in growth medium (RPMI medium 1640-GlutaMAX™—I (ThermoFisher Scientific 61870) containing 10% fetal bovine serum (ThermoFisher Scientific 10091148)). The cells were harvested in growth medium after TrypLE (ThermoFisher scientific 12604021) digestion and were seeded in a 384-well collagen coated cell culture plate (Corning 356702) at a density of 15,000 cells/well, and incubated at 37° C., 5% CO2 overnight. […] RPMI medium 1640-GlutaMAX™—I was added to the intermediate plate and the contents of the intermediate plate were then transferred to the 384-well collagen coated cell culture plate, which was incubated at 37° C., 5% CO2 for 2 hours. After removal of medium from the collagen coated cell culture plate, cells were lysed in lysis buffer from Alpha SureFire® Ultra™ Multiplex p-ERK and total ERK assay kit (PerkinElmer MPSU-PTERK) containing Halt™ Protease and Phosphatase inhibitor cocktail (ThermoFisher Scientific 78446) at room temperature with constant shaking at 300 rpm for 30 minutes. The cell lysates were then transferred to an OptiPlate-384 plate (PerkinElmer 6005620), and the phosphorylation of ERK (p-ERK) and total ERK levels were detected by Alpha SureFire® Ultra™ Multiplex p-ERK kit and total ERK assay kit (PerkinElmer MPSU-PTERK) following the manufacturer's protocol. Assay plates were read on an EnVision Multimode Plate Reader (PerkinElmer), and the ratio of p-ERK vs. total ERK in each well was used as the final readout. Dose response curves were analyzed using a 4-parameter logistic model to calculate IC50 values using Spotfire software.

[2] = target: Recombinant KRAS-G12D (SEQ ID NO: 2) (Homo sapiens, UniProt P01116, G12D); assay: SOS-catalyzed guanine nucleotide exchange (GNE) assay, KRAS-G12D
Protocol: (§1) Specifically, the SOS-catalyzed nucleotide exchange assay utilizes a preformed time-resolved fluorescence resonance energy transfer (TR-FRET) complex containing a specific biotinylated RAS protein (KRAS-G12C/V/D, HRAS, NRAS; described above) with BODIPY-GDP, and Terbium-streptavidin. Test compounds are preincubated with this complex for 60 minutes.
(§2) To assemble the preformed TR-FRET complexes, each biotinylated RAS protein is diluted to 2 μM in an EDTA Buffer (20 mM HEPES, 50 mM sodium chloride, 10 mM EDTA, and 0.01% Tween) and incubated at room temperature for one hour. This mixture is then further diluted to 90 nM in an Assay Buffer (20 mM HEPES, 150 mM sodium chloride, 10 mM magnesium chloride, and 0.005% Tween) containing 15 nM of Terbium-Streptavidin (Invitrogen, catalog #PV3577) and 900 nM of BODIPY-GDP (Invitrogen, catalog #G22360) and incubated at room temperature for six hours. It should be noted that this preformed TR-FRET complex for each of the RAS proteins was made ahead of time, aliquoted and stored at −80° C. until the day of the experiment.
(§3) Once titrations are made, 10 nL of the diluted compounds is acoustically dispensed into a 384-well assay plate (Corning, catalog #3820) using an Echo 550 (Labcyte). Each well of the assay plate subsequently receives 3 μL of a specific 3× RAS preformed TR-FRET complex and 3 μL of Assay Buffer and is incubated at room temperature for 60 minutes (preincubation time). […] The final reaction in each well of 9 μL consists of 3 mM GTP, and the specific RAS and SOS proteins in the following concentrations: KRAS-G12C/SOS=3 nM/40 nM, KRAS-G12D/SOS=1 nM/40 nM, KRAS-G12V/SOS=1.25 nM/160 nM, HRAS/SOS=1.25 nM/40 nM, and NRAS/SOS=1.25 nM/40 nM.
(§4) The TR-FRET signal is measured on an Envision (PerkinElmer) plate reader: Excitation filter=340 nm; emission 1=495 nm; emission 2=520 nm; dichroic mirror=D400/D505; delay time=100 ms. The signal of each well is determined as the ratio of the emission at 520 nm to that at 495 nm. […] The apparent effect as a function of compound concentration is fit to a four-parameter logistic equation to calculate IC50 values using Spotfire software.

[3] = target: Recombinant KRAS-G12V (SEQ ID NO: 3) (Homo sapiens, UniProt P01116, G12V); assay: SOS-catalyzed guanine nucleotide exchange (GNE) assay, KRAS-G12V
Protocol: as §1, §2, §3, §4

G13D = G13D (Homo sapiens, UniProt P01116, G13D); assay: Guanine nucleotide exchange (GNE) assay, G13D; format: biochemical
Sequence of G13D (P01116 1-188 isoform P01116-2 G13D): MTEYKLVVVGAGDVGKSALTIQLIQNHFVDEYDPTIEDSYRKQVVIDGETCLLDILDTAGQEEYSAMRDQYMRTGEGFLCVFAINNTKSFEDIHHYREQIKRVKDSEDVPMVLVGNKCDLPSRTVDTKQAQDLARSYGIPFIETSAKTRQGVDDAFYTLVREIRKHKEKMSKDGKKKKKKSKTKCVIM
Protocol: as §4

[4] = system: AsPC-1 cells containing homozygous KRAS-G12D activating mutation (p-ERK); details: Homo sapiens, ASPC1, 2 h, read-out: KRAS G12D ASPC-1 IC50 (nM)
Protocol: Procedure for Cellular Phospho-ERK Assay, G12D
AsPC-1 cells (ATCC® CRL-1682™), containing homozygous KRAS-G12D activating mutation, were cultured in T150 flask in growth medium (RPMI medium 1640-GlutaMAX™—I (ThermoFisher Scientific 61870) containing 10% fetal bovine serum (ThermoFisher Scientific 10091148)). The cells were harvested in growth medium after TrypLE (ThermoFisher scientific 12604021) digestion and were seeded in a 384-well collagen coated cell culture plate (Corning 356702) at a density of 15,000 cells/well, and incubated at 37° C., 5% CO2 overnight. […] RPMI medium 1640-GlutaMAX™—I was added to the intermediate plate and the contents of the intermediate plate were then transferred to the 384-well collagen coated cell culture plate, which was incubated at 37° C., 5% CO2 for 2 hours. After removal of medium from the collagen coated cell culture plate, cells were lysed in lysis buffer from Alpha SureFire® Ultra™ Multiplex p-ERK and total ERK assay kit (PerkinElmer MPSU-PTERK) containing Halt™ Protease and Phosphatase inhibitor cocktail (ThermoFisher Scientific 78446) at room temperature with constant shaking at 300 rpm for 30 minutes. The cell lysates were then transferred to an OptiPlate-384 plate (PerkinElmer 6005620), and the phosphorylation of ERK (p-ERK) and total ERK levels were detected by Alpha SureFire® Ultra™ Multiplex p-ERK kit and total ERK assay kit (PerkinElmer MPSU-PTERK) following the manufacturer's protocol. Assay plates were read on a EnVision Multimode Plate Reader (PerkinElmer), and the ratio of p-ERK vs. total ERK in each well was used as the final readout. Dose response curves were analyzed using a 4-parameter logistic model to calculate IC50 values using Spotfire software.

Sequence of Recombinant KRAS-G12D (SEQ ID NO: 2) (P01116 with tags, fused parts or gaps isoform P01116-2 G12D): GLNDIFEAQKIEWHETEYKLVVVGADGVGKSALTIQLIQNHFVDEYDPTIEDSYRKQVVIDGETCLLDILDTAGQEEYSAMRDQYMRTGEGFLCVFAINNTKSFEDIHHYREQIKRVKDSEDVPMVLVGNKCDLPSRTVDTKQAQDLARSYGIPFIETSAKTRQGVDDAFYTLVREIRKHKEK
Sequence of Recombinant KRAS-G12V (SEQ ID NO: 3) (P01116 with tags, fused parts or gaps isoform P01116-2 G12V): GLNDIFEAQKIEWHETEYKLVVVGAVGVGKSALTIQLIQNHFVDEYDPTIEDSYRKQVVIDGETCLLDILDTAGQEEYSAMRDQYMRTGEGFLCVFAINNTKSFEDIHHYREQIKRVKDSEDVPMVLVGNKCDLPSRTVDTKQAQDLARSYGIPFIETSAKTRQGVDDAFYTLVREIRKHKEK

IC50 [1] | IC50 [2] | IC50 [3] | IC50 (G13D) | IC50 [4] | SMILES
3580 nM | 398 nM | 300 nM | 142 nM | 1860 nM | CC1(O)CCCCN(c2nc(OC[C@@]34CCCN3C[C@H](F)C4)nc3c(F)c(-c4cc(O)cc5cccc(Cl)c45)c(F)cc23)C1 (single isomer, unassigned) [Ex-36]
2170 nM | 857 nM | 598 nM | 777 nM | 6860 nM | Oc1cc(-c2c(F)cc3c(N4CCCC(O)(C(F)(F)F)C4)nc(OC[C@@]45CCCN4C[C@H](F)C5)nc3c2F)c2c(Cl)cccc2c1 (single isomer, unassigned) [Ex-38]
4210 nM | 315 nM | 381 nM | 221 nM | 1880 nM | CN(C)CC1(COc2nc(N3CCCC(C)(O)C3)c3cc(F)c(-c4cc(O)ccc4OC(F)(F)F)c(F)c3n2)CC1 (centres unmarked) [Ex-9, 1-(2-((1-((dimethylamino)methyl)cyclopropyl)methoxy)-6,8-difluoro-7-(5-hydroxy-2-(trifluoromethoxy)phenyl)quinazolin-4-yl)-3-methylpiperidin-3-ol]
 | 4 nM | 6 nM | 6 nM | 1180 nM | CN(C)CC1(COc2nc(N3CCC[C@@](C)(O)C3)c3cnc(-c4cc(O)cc5cccc(Cl)c45)c(F)c3n2)CC1 [Ex-20, (R)-1-(7-(8-chloro-3-hydroxynaphthalen-1-yl)-2-((1-((dimethylamino)methyl)cyclopropyl)methoxy)-8-fluoropyrido[4,3-d]pyrimidin-4-yl)-3-methylpiperidin-3-ol]
 | 1 nM | 1 nM | 1 nM | 329 nM | C#Cc1cccc2cc(O)cc(-c3ncc4c(N5CCC[C@@](C)(O)C5)nc(OCC5(CN(C)C)CC5)nc4c3F)c12 [Ex-21, (R)-1-(2-((1-((dimethylamino)methyl)cyclopropyl)methoxy)-7-(8-ethynyl-3-hydroxynaphthalen-1-yl)-8-fluoropyrido[4,3-d]pyrimidin-4-yl)-3-methylpiperidin-3-ol]
468 nM | 984 nM | 358 nM | 189 nM | 1730 nM | CC1(O)CN(c2nc(OC[C@@]34CCCN3C[C@H](F)C4)nc3c(F)c(-c4cc(O)cc5cccc(Cl)c45)c(F)cc23)CCC1(F)F (stereo partly drawn) [Ex-31, 1-(7-(8-chloro-3-hydroxynaphthalen-1-yl)-6,8-difluoro-2-(((2R,7aS)-2-fluorotetrahydro-1H-pyrrolizin-7a(5H)-yl)methoxy)quinazolin-4-yl)-4,4-difluoro-3-methylpiperidin-3-ol]
3620 nM | 285 nM | 589 nM | 441 nM | 6300 nM | Oc1cc(-c2c(F)cc3c(N4CCCCC(O)C4)nc(OC[C@@]45CCCN4C[C@H](F)C5)nc3c2F)c2c(Cl)cccc2c1 (stereo partly drawn) [Ex-34, 1-(7-(8-chloro-3-hydroxynaphthalen-1-yl)-6,8-difluoro-2-(((2R,7aS)-2-fluorotetrahydro-1H-pyrrolizin-7a(5H)-yl)methoxy)quinazolin-4-yl)azepan-3-ol]
981 nM | 173 nM | 470 nM | 931 nM | 1330 nM | Cc1cc2[nH]ncc2c(-c2c(F)cc3c(N4CCC[C@H](O)CC4)nc(OC[C@@]45CCCN4C[C@H](F)C5)nc3c2F)c1C(F)(F)F [Ex-40, (4S)-1-(6,8-difluoro-2-(((2R,7aS)-2-fluorotetrahydro-1H-pyrrolizin-7a(5H)-yl)methoxy)-7-(6-methyl-5-(trifluoromethyl)-1H-indazol-4-yl)quinazolin-4-yl)azepan-4-ol]
58 nM | 13 nM | 10 nM | 8 nM | 215 nM | C#Cc1cccc2cc(O)cc(-c3c(F)cc4c(N5CCCC(O)(C(F)F)C5)nc(OC[C@@]56CCCN5C[C@H](F)C6)nc4c3F)c12 (stereo partly drawn) [Ex-43, 3-(difluoromethyl)-1-(7-(8-ethynyl-3-hydroxynaphthalen-1-yl)-6,8-difluoro-2-(((2R,7aS)-2-fluorotetrahydro-1H-pyrrolizin-7a(5H)-yl)methoxy)quinazolin-4-yl)piperidin-3-ol]
180 nM | 13 nM | 5 nM | 7 nM | 376 nM | C#Cc1cccc2cc(O)cc(-c3c(F)cc4c(N5CCCC(O)(CO)C5)nc(OC[C@@]56CCCN5C[C@H](F)C6)nc4c3F)c12 (stereo partly drawn) [Ex-48, 1-(7-(8-ethynyl-3-hy-droxynaphthalen-1-yl)-6,8-difluoro-2-(((2R,7aS)-2-fluorotetrahydro-1H-pyrrolizin-7a(5H)-yl)methoxy)quinazolin-4-yl)-3-(hydroxymethyl)piperidin-3-ol]

The next lines start with the compound.

SMILES | IC50 [1] | IC50 [2] | IC50 [3] | IC50 (G13D) | IC50 [4]
Cc1cc(N)nc(-c2c(Cl)cc3c(N4CCCC(C)(O)C4)nc(OC[C@@]45CCCN4C[C@H](F)C5)nc3c2F)c1C(F)(F)F (single isomer, unassigned) [Ex-26] | 7730 nM | 2010 nM | 1550 nM | 711 nM | 3920 nM
C#Cc1cccc2cc(O)cc(-c3cnc4c(N5CCC[C@@](C)(O)C5)nc(OCC5(CN(C)C)CC5)nc4c3)c12 [Ex-19, (R)-1-(2-((1-((dimethylamino)methyl)cyclopropyl)methoxy)-7-(8-ethynyl-3-hydroxynaphthalen-1-yl)pyrido[3,2-d]pyrimidine-4-yl)-3-methylpiperidin-3-ol] |  | 91 nM | 47 nM | 129 nM | 3340 nM
C#Cc1cccc2cc(O)cc(-c3ncc4c(N5CCC[C@@](C)(O)C5)nc(OCC56CCCN5CCC6)nc4c3F)c12 [Ex-22, (R)-1-(7-(8-ethyny1-3-hydroxynaphthalen-1-yl)-8-fluoro-2-((tetrahydro-1H-pyrrolizin-7a(5H)-yl)methoxy)pyrido[4,3-d]pyrimidin-4-yl)-3-methylpiperidin-3-ol] | 305 nM | 1 nM | 2 nM | 1 nM | 1160 nM
C#Cc1cccc2cc(O)cc(-c3ncc4c(N5CCC[C@@](C)(O)C5)nc(OC[C@@]56CCCN5C[C@H](F)C6)nc4c3F)c12 [Ex-23, (R)-1-(7-(8-ethynyl-3-hydroxynaphthalen-1-yl)-8-fluoro-2-(((2R,7aS)-2-fluorotetrahydro-1H-pyrrolizin-7a(5H)-yl)methoxy)pyrido[4,3-d]pyrimidin-4-yl)-3-methylpiperidin-3-ol] | 14 nM | 1 nM | 1 nM | 2 nM | 65 nM
C#Cc1cccc2cc(O)cc(-c3ncc4c(N5CCC[C@@](C)(O)C5)nc(OC[C@]5(CN(C)C)CC5(F)F)nc4c3F)c12 [Ex-24, (R)-1-(2-(((R)-1-((dimethylamino)meth-yl)-2,2-difluorocyclopropyl)methoxy)-7-(8-ethynyl-3-hydroxynaphthalen-1-yl)-8-fluoropyrido[4,3-d]pyrimidin-4-yl)-3-methylpiperidin-3-ol] | 2 nM | 1 nM | 1 nM | 1 nM | 20 nM
CC1(O)CCCN(c2nc(OC[C@@]34CCCN3C[C@H](F)C4)nc3c(F)c(-c4cc(O)cc5cccc(Cl)c45)c(F)cc23)C1 (stereo partly drawn) [Ex-29, 1-(7-(8-chloro-3-hydroxynaphthalen-1-yl)-6,8-difluoro-2-(((2R,7aS)-2-fluorotetrahydro-1H-pyrrolizin-7a(5H)-yl)methoxy)quinazolin-4-yl)-3-methylpiperidin-3-ol] | > 30000 nM | 15 nM | 17 nM | 13 nM | 900 nM
CC1(O)CN(c2nc(OC[C@@]34CCCN3C[C@H](F)C4)nc3c(F)c(-c4cc(O)cc5cccc(Cl)c45)c(F)cc23)CCC1F (stereo partly drawn) [Ex-32, 1-(7-(8-chloro-3-hydroxynaphthalen-1-yl)-6,8-difluoro-2-(((2R,7aS)-2-fluorotetrahydro-1H-pyrrolizin-7a(5H)-yl)methoxy)quinazolin-4-yl)-4-fluoro-3-methylpiperidin-3-ol] | 118 nM | 59 nM | 40 nM | 16 nM | 261 nM
C#Cc1c(F)ccc2cccc(-c3c(F)cc4c(N5CCC[C@@](C)(O)C5)nc(OC[C@@]56CCCN5[C@H](COC(=O)N(C)C)CC6)nc4c3F)c12 [Ex-45, ((3S,7aS)-7a-(((7-(8-ethynyl-7-fluoronaphthalen-1-yl)-6,8-difluoro-4-((R)-3-hydroxy-3-methylpiperidin-1-yl)quinazolin-2-yl)oxy)methyl)hexahydro-1H-pyrrolizin-3-yl)methyl dimethylcarbamate] | 331 nM | 23 nM | 12 nM | 14 nM | 379 nM
C#Cc1c(F)ccc2cccc(-c3c(F)cc4c(N5CCC[C@@](C)(O)C5)nc(OC[C@@]56CCCN5C[C@H](F)C6)nc4c3F)c12 [Ex-47, (3R)-1-(7-(8-ethynyl-7-fluoronaphthalen-1-yl)-6,8-difluoro-2-(((2R,7aS)-2-fluorotetrahydro-1H-pyrrolizin-7a(5H)-yl)methoxy)quinazolin-4-yl)-3-methylpiperidin-3-ol] | 979 nM | 239 nM | 390 nM | 173 nM | 2070 nM

— patent US20260200925A1, “SMALL MOLECULE INHIBITORS OF KRAS MUTATED PROTEINS” (MERCK SHARP & DOHME LLC, priority 2021, published 2026)
